Reference: US12303474B2, “S-enantiomerically enriched compositions of beta blockers for treating amyotrophic lateral sclerosis” (priority 2013, dated 2025)
Read-outs that look alike come from different tables or passages of the source.

Columns and labels:
[1] = test system: G93A SOD1 B6SJL hybrid (G93A) model; conditions: 10 mg/kg/day vs. placebo;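 as to HR survival (FIG. 14): dosing began after ALS onset in G93A SOD1 mice, with survival as the endpoint, defined humanely as the animal failing to regain upright posture within 30 s when placed sideways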;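 as to HR survival (FIG. 16): dosing began after ALS onset in G93A SOD1 mice, with survival as the endpoint, defined humanely as the animal failing to regain upright posture within 30 s when placed sideways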
Text: To study the effect of S-oxprenolol on survival, survival was monitored over time.

[2] = test system: G93A SOD1 B6SJL hybrid (G93A) model; assay: Disease progression score (JAX SOP) in G93A SOD1 transgenic mice; conditions: 10 mg/kg/day vs. placebo
Text: The disease progression score is based on the JAX SOP (Ludolph A C, Bendotti C, Blaugrund E, Hengerer B, Loffler J P, Martin J, Meininger V, Meyer T, Moussaoui S, Robberecht W, Scott S, Silani V, Van Den Berg L H (ENMC Group For The Establishment Of Guidelines For The Conduct Of Preclinical And Proof Of Concept Studies In ALS/MND Models). 2007, which is incorporated by reference).

[3] = test system: G93A SOD1 B6SJL hybrid (G93A) model; conditions: 10 mg/kg/d; for Heart / gastrocnemius: end of study;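 as to HR survival (FIG. 14): dosing began after ALS onset in G93A SOD1 mice, with survival as the endpoint, defined humanely as the animal failing to regain upright posture within 30 s when placed sideways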;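 as to HR survival (FIG. 16): dosing began after ALS onset in G93A SOD1 mice, with survival as the endpoint, defined humanely as the animal failing to regain upright posture within 30 s when placed sideways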
Method: (§1) Transgenic mice over-expressing a high copy number (25 copies) of mutated human SOD1 gene with a G93A point mutation, i.e., B6SJL-TgN [SOD1-G93A]1 Gur (G1H-G93A transgenic mice, JR2726; Hemizygote) (Gurney M E, et al., Science, 264, 1772-1775, 1994) (“G93A SOD1 B6SJL hybrid (G93A) model”), were used.
To study the effect of the test compounds on skeletal muscle atrophy, the skeletal muscle mass were determined at the end of the study.
The number of all mice in the population is indicated as “n” in at the bottom of FIGS. 21A-21C.
The number of all mice in the population is indicated as “n” in at the bottom of FIGS. 20D-20F.
The number of all mice in the population is indicated as “n” in at the bottom of FIGS. 21G-21I.

[4] = test system: G93A SOD1 B6SJL hybrid (G93A) model; assay: Body weight and body composition (lean mass, fat mass; NMR scans) in G93A SOD1 transgenic mice; format: in vivo; conditions: 10 mg/kg/d; for Average Δ body weight / Average Δ fat mass / Average Δ lean mass: per day alive after disease onset
Text: as §1
[…] […] There were 16 mice in the S-oxprenolol group.
The primary endpoint was survival, humanely defined as the ability of the animal to right itself in 30 seconds after being laid on its side. Secondary endpoints were body weight, body composition, spontaneous activity and food intake. Body weight of the animals was assessed weekly until onset of disease. Additionally, body composition (fat mass and lean body mass) was assessed using NMR scans (EchoMRI-100, Echo Medical Systems, Houston, USA) every 4 days. After onset of disease, body weight and body composition were assessed every two days until the end of the study. All personal handling the animals was strictly blinded to the randomized treatment allocation.
To study the effect of S-oxprenolol on body weight, body weight was monitored over time.
To study the effect of the test compounds on lean body mass, lean mass was determined at the end of the study.
To study the effect of the test compounds on fat mass, the fat mass were determined at the end of the study.
To study the effect of S-oxprenolol on body weight, body weight was monitored over time. […] The number of all mice in the population is indicated as “n” in at the bottom of FIGS. 20A-20C.
To study the effect of the test compounds on lean body mass, lean mass was determined at the end of the study. […] The number of all mice in the population is indicated as “n” in at the bottom of FIGS. 20D-20F.
To study the effect of the test compounds on fat mass, the fat mass were determined at the end of the study. […] The number of all mice in the population is indicated as “n” in at the bottom of FIGS. 20G-20I.

Which results are given for `CC(C)NCC(O)COc1cccc2ccccc12` (centres unmarked) [propanolol]?
HR survival (FIG. 14) ([1]; all mice): 0.73; HR survival (FIG. 16) ([1]; female mice): 0.71; HR survival (FIG. 15) ([1]; male mice): 0.59; HR Progression from score 1 to score 2 (FIG. 17) [2]: 0.64; HR Progression from score 1 to score 3 (FIG. 19) [2]: 0.72; HR Progression from score 2 to score 3 (FIG. 18) [2]: 0.99; BAT (brown adipose tissue) ([3]; all mice): 45.1 ± 2.9 mg; EDL (extensor digitorum longus) ([3]; all mice): 7.11 ± 0.37 mg; soleus ([3]; all mice): 5.60 ± 0.28 mg; Heart ([3]; all mice): 104.0 ± 3.2 mg; gastrocnemius ([3]; all mice): 52.4 ± 3.3 mg; BAT (brown adipose tissue) ([3]; female mice): 41.2 ± 2.2 mg; EDL (extensor digitorum longus) ([3]; female mice): 6.21 ± 0.37 mg; soleus ([3]; female mice): 5.57 ± 0.43 mg; Heart ([3]; female mice): 93.8 ± 2.7 mg; gastrocnemius ([3]; female mice): 40.6 ± 3.3 mg; BAT (brown adipose tissue) ([3]; male mice): 48.7 ± 5.1 mg; EDL (extensor digitorum longus) ([3]; male mice): 7.94 ± 0.55 mg; soleus ([3]; male mice): 5.63 ± 0.38 mg; Heart ([3]; male mice): 113.5 ± 4.6 mg; gastrocnemius ([3]; male mice): 63.3 ± 3.6 mg; Δ body weight ([4]; all mice): -5.89 ± 0.42 g; Δ fat mass ([4]; all mice): -1.82 ± 0.25 g; Δ lean mass ([4]; all mice): -4.89 ± -0.26 g; Average Δ body weight ([4]; all mice): -127.6 ± 10.6 mg/day; Average Δ fat mass ([4]; all mice): -43.9 ± 5.5 mg/day; Δ body weight ([4]; female mice): -5.66 ± 0.66 g; Δ fat mass ([4]; female mice): -1.65 ± 0.44 g; Δ lean mass ([4]; female mice): -4.70 ± 0.37 g; Average Δ body weight ([4]; female mice): -111.3 ± 13.2 mg/day; Average Δ fat mass ([4]; female mice): -30.9 ± 8.3 mg/day; Average Δ lean mass ([4]; female mice): -91.2 ± 8.3 mg/day; Δ body weight ([4]; male mice): -6.11 ± 0.54 g; Δ fat mass ([4]; male mice): -1.99 ± 0.26 g; Δ lean mass ([4]; male mice): -5.06 ± 0.37 g; Average Δ body weight ([4]; male mice): -142.7 ± 15.9 mg/day; Average Δ fat mass ([4]; male mice): -51.9 ± 6.9 mg/day; Average Δ lean mass ([4]; male mice): -118.6 ± 10.6 mg/day
